According to PMC9640990 (Frontiers in Pharmacology, 2022):

Key:
[1] = biological target: T1, hOCT2 (Homo sapiens, UniProt O15244); assay: Inhibition of hOCT2-mediated uptake of 14C-TEA in hOCT2-S2 cells; assay type: cell-based
T1 construct: host or cells: S2
T1 sequence (O15244 1-555): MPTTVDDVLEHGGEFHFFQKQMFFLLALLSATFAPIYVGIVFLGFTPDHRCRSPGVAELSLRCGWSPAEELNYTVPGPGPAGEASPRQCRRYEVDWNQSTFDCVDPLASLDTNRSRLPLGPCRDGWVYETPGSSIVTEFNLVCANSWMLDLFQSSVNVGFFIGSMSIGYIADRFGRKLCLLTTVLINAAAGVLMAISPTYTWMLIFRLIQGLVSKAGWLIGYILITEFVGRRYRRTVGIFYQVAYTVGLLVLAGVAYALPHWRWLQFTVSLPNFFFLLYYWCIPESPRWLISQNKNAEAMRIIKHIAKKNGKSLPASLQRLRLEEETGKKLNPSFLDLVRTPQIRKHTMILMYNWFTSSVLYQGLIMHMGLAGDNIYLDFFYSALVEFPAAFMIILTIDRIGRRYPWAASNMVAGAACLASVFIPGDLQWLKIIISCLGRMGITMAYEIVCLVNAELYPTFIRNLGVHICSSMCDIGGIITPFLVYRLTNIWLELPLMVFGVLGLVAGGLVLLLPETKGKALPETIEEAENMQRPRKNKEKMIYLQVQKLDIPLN
Source text: Considering the relative exposure characteristics, GA and PCA were selected as PK-marker and Q-marker components of PCE in previous studies ([Ma et al., 2015]; [Ma et al., 2016]; [Li et al., 2021b]). In this study, we investigated the concentration-dependent inhibitions of GA and PCA on multiple transporters, including OAT1, OAT3, OCT2, MDR1, and BCRP. Stably expressing cell lines of hOAT1-MDCK, hOAT3-MDCK, hOCT2-S2, hMDR1-MDCK, hBCRP-MDCK, and their mock cells were obtained from Japan Fuji Biomedical Co., Ltd. The cells were maintained in DMEM (Sigma) supplemented with 10% FCS, 1% non-essential amino acids (Sigma), and 2% L-glutamine. The medium for the Transwell® plates (Corning Costar, Cambridge, MA, United States) was supplemented with 0.1% gentamicin. […]
Briefly, the hOAT1-MDCK, hOAT3-MDCK, and hOCT2-S2 cells were trypsinized and suspended in the culture medium to provide a density of 1.5 × 10^5 cells/ml. […] The radioactive intensity of ^14C-PAH, ^3H-ES, and ^14C-TEA was measured using a Tri-Carb 2910TR scintillator (PerkinElmer, United States). Fluorescence was measured at 485 nm (excitation) and 546 nm (emission) for rhodamine 123, and 425 nm (excitation) and 528 nm (emission) for lucifer yellow. IC50 values were determined by employing GraphPad Prism 9.

[2] = rats; approximately
[3] = 1990, cited from earlier work
[4] = system: BCRP mRNA; assay: BCRP mRNA expression in Caco-2 cells (qRT-PCR); assay type: cell-based; conditions: 48 h pretreatment, bosentan 20 μM, GA 50 μM, PCA 50 μM, PCE 100 mg/ml
Protocol: (§1) After the incubation period, cells were harvested from the Transwell inserts for RNA extraction. […] Real-time quantitative PCR (qRT-PCR) was performed on an ABI Prism 7900HT Sequence Detection System (Applied Biosystems, Foster City, CA, United States) for the analysis of MDR1 and BCRP genes. Primers of housekeeping gene β-actin was used as internal controls. […] The relative gene expression levels were determined using the comparative CT method (ΔΔCT method). The cut-off CT was set at 35 cycles for all analyses. An arbitrary classification system was assigned to the data, designating relative expression levels >2 as high mRNA expression, levels between 2 and 1 as moderate mRNA expression, levels between 1 and 0.1 as low mRNA expression and levels <0.1 as unexpressed.

[5] = system: MDR1 mRNA; assay: MDR1 mRNA expression in Caco-2 cells (qRT-PCR); assay type: cell-based; conditions: 48 h pretreatment, bosentan 20 μM, GA 50 μM, PCA 50 μM, PCE 100 mg/ml
Protocol: as §1

[6] = biological target: hOAT3 (Homo sapiens, UniProt Q8TCC7); assay: Inhibition of hOAT3-mediated uptake of 3H-ES in hOAT3-MDCK cells; assay type: cell-based; conditions: hOAT3-MDCK cells
Source text: Considering the relative exposure characteristics, GA and PCA were selected as PK-marker and Q-marker components of PCE in previous studies ([Ma et al., 2015]; [Ma et al., 2016]; [Li et al., 2021b]). In this study, we investigated the concentration-dependent inhibitions of GA and PCA on multiple transporters, including OAT1, OAT3, OCT2, MDR1, and BCRP. Stably expressing cell lines of hOAT1-MDCK, hOAT3-MDCK, hOCT2-S2, hMDR1-MDCK, hBCRP-MDCK, and their mock cells were obtained from Japan Fuji Biomedical Co., Ltd. The cells were maintained in DMEM (Sigma) supplemented with 10% FCS, 1% non-essential amino acids (Sigma), and 2% L-glutamine. The medium for the Transwell® plates (Corning Costar, Cambridge, MA, United States) was supplemented with 0.1% gentamicin. Membrane filters were placed in a 12 mm well with 1.5 and 0.5 ml of culture medium in the basolateral and apical compartments, respectively. Cells were cultured at 37°C in an atmosphere of 5% CO2. The inhibition experiments were adapted from previous methods with minor modifications ([Li et al., 2021a]; [2021b]).
Briefly, the hOAT1-MDCK, hOAT3-MDCK, and hOCT2-S2 cells were trypsinized and suspended in the culture medium to provide a density of 1.5 × 10^5 cells/ml. After incubating for 48 h, the cells were washed twice with preheated DPBS and then pre-incubated with DPBS for 10 min at 37°C. 500 µl of DPBS containing probe substrates was added to initiate the uptake in the presence or absence of GA, PCA or positive inhibitors. The hMDR1-MDCK and hBCRP-MDCK cells were suspended at a density of 4.0 × 10^5 cells/ml. After cultivation for 7 days, cells were washed twice and equilibrated for 30 min at 37°C with the pre-warmed HBSS buffer. […] The radioactive intensity of ^14C-PAH, ^3H-ES, and ^14C-TEA was measured using a Tri-Carb 2910TR scintillator (PerkinElmer, United States). Fluorescence was measured at 485 nm (excitation) and 546 nm (emission) for rhodamine 123, and 425 nm (excitation) and 528 nm (emission) for lucifer yellow. IC50 values were determined by employing GraphPad Prism 9.

Chain of hOAT3 (Q8TCC7 whole entry): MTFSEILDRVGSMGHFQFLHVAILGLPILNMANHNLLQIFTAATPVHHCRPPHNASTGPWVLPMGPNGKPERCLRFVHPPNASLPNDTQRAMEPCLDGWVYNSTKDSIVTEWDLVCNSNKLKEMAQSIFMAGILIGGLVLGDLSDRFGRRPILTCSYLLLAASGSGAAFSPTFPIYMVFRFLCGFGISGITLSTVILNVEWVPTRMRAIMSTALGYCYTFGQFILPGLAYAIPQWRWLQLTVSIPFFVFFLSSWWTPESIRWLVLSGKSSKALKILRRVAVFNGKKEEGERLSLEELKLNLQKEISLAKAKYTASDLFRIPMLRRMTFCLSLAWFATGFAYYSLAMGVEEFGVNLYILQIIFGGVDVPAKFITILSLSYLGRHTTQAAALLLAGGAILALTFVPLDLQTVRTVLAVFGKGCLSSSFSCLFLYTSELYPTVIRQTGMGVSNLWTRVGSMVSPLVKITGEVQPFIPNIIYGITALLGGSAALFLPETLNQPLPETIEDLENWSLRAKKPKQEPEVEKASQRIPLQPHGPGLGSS

## CO[C@H]1/C=C/O[C@@]2(C)Oc3c(C)c(O)c4c(O)c(c(/C=N/N5CCN(C)CC5)c(O)c4c3C2=O)NC(=O)/C(C)=C\C=C\[C@H](C)[C@H](O)[C@@H](C)[C@@H](O)[C@@H](C)[C@H](OC(C)=O)[C@@H]1C [rifampicin]
[1]
  effect of positive inhibitor on hOCT2: Significant inhibitory effects

## O=C(O)c1cn(C2CC2)c2cc(N3CCNCC3)c(F)cc2c1=O [CIP, ciprofloxacin]
[2]
  reduction of circulating CIP by concurrent use of PCE: 40%–50%
[3]; ref Rohwedder et al., Haslam et al., 2011
  share of an intravenous dose eliminated into the intestine: Approximately 20%
[3]; ref Vance-Bryan et al.
  excreted in unchanged form into the urine: Approximately 60%

## COc1ccccc1Oc1c(NS(=O)(=O)c2ccc(C(C)(C)C)cc2)nc(-c2ncccn2)nc1OCCO [bosentan, Bosentan]
[4]
  increase of BCRP mRNA expression: 4.31 fold
[5]
  increase of MDR1 (P-gp) mRNA expression: 7.36 fold

## CN/C(=N/CCSCc1nc[nH]c1C)NC#N [cimetidine]
[6]
  effect of positive inhibitor on hOAT3: Significant inhibitory effects
